From PubChem BioAssay AID1963984 (Molecular Pharmacology Branch, DTP, NCI, 2024) come the findings set out here.
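Also: spheroids exposed to agents for seven days before readout; percent viability relative to DMSO vehicle control taken as 100%.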

The test system of the first experiment is 233499-124-R-J3-PDC spheroids with HUVEC/MSC, viability. Description: Anticancer human tumor 233499-124-R-J3-PDC patient-derived colon adenocarcinoma cell line growth inhibition [PI3K]. To be noted: second compound 0.0316 µM; first compound 3.16 µM; active compounds read low. The procedure, abridged:
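Tumor cells were combined with HUVEC and MSCs into spheroids, then dosed with PI3K-inhibitor combinations over half-log ranges capped near clinical Cmax or 10 microM.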
One may read the viability, T/C as the result in the treated group divided by that in the control group, in per cent. In the case of `Cn1ncc(Cl)c1-c1cc(C(=O)NC(CN)Cc2cccc(F)c2)sc1Cl` (configuration not stated) + Cc1nc(NC(=O)N2CCCC2C(N)=O)sc1-c1ccnc(C(C)(C)C(F)(F)F)c1, the viability, T/C is 70%.

As for `Cn1nccc1Nc1nccc(-c2ccn(C(CO)c3ccc(Cl)c(F)c3)c(=O)c2)n1` (configuration not stated) + Cc1nc(NC(=O)N2CCCC2C(N)=O)sc1-c1ccnc(C(C)(C)C(F)(F)F)c1, the viability, T/C is 68.9%.

The same experiment, now with this note: second compound 0.0316 µM; first compound 10 µM; active compounds read low.
With `C=CC(=O)N1CCN(c2nc(=O)n(-c3c(C)ccnc3C(C)C)c3nc(-c4c(O)cccc4F)c(F)cc23)C(C)C1` (configuration not stated) + Cc1nc(NC(=O)N2CCCC2C(N)=O)sc1-c1ccnc(C(C)(C)C(F)(F)F)c1, the viability, T/C was 85%.

For the compound `CC(Cn1ccc(-c2ccc(C#N)c(Cl)c2)n1)NC(=O)c1cc(C(C)O)[nH]n1` (configuration not stated) + Cc1nc(NC(=O)N2CCCC2C(N)=O)sc1-c1ccnc(C(C)(C)C(F)(F)F)c1, the viability, T/C was 85.6%.

Consider `Cn1ncc(Cl)c1-c1cc(C(=O)NC(CN)Cc2cccc(F)c2)sc1Cl` (configuration not stated) + Cc1nc(NC(=O)N2CCCC2C(N)=O)sc1-c1ccnc(C(C)(C)C(F)(F)F)c1, for which the viability, T/C was 34.1%.

Regarding `Cn1nccc1Nc1nccc(-c2ccn(C(CO)c3ccc(Cl)c(F)c3)c(=O)c2)n1` (configuration not stated) + Cc1nc(NC(=O)N2CCCC2C(N)=O)sc1-c1ccnc(C(C)(C)C(F)(F)F)c1, the viability, T/C was 58.2%.

Still in this experiment, the particulars now being: second compound 0.1 µM; first compound 0.0316 µM; active compounds read low.
As for `C=CC(=O)N1CCN(c2nc(=O)n(-c3c(C)ccnc3C(C)C)c3nc(-c4c(O)cccc4F)c(F)cc23)C(C)C1` (configuration not stated) + Cc1nc(NC(=O)N2CCCC2C(N)=O)sc1-c1ccnc(C(C)(C)C(F)(F)F)c1, the viability, T/C is 84.8%.

Turning to `CC(Cn1ccc(-c2ccc(C#N)c(Cl)c2)n1)NC(=O)c1cc(C(C)O)[nH]n1` (configuration not stated) + Cc1nc(NC(=O)N2CCCC2C(N)=O)sc1-c1ccnc(C(C)(C)C(F)(F)F)c1, the viability, T/C is 102%.

For `Cn1ncc(Cl)c1-c1cc(C(=O)NC(CN)Cc2cccc(F)c2)sc1Cl` (configuration not stated) + Cc1nc(NC(=O)N2CCCC2C(N)=O)sc1-c1ccnc(C(C)(C)C(F)(F)F)c1, the viability, T/C was 102%.

`Cn1nccc1Nc1nccc(-c2ccn(C(CO)c3ccc(Cl)c(F)c3)c(=O)c2)n1` (configuration not stated) + Cc1nc(NC(=O)N2CCCC2C(N)=O)sc1-c1ccnc(C(C)(C)C(F)(F)F)c1: the viability, T/C is 92.6%.

The same experiment, now with this note: second compound 0.1 µM; first compound 0.1 µM; active compounds read low.
For the compound `C=CC(=O)N1CCN(c2nc(=O)n(-c3c(C)ccnc3C(C)C)c3nc(-c4c(O)cccc4F)c(F)cc23)C(C)C1` (configuration not stated) + Cc1nc(NC(=O)N2CCCC2C(N)=O)sc1-c1ccnc(C(C)(C)C(F)(F)F)c1, the viability, T/C was 96.3%.

As for `CC(Cn1ccc(-c2ccc(C#N)c(Cl)c2)n1)NC(=O)c1cc(C(C)O)[nH]n1` (configuration not stated) + Cc1nc(NC(=O)N2CCCC2C(N)=O)sc1-c1ccnc(C(C)(C)C(F)(F)F)c1, the viability, T/C is 106%.

On to `Cn1ncc(Cl)c1-c1cc(C(=O)NC(CN)Cc2cccc(F)c2)sc1Cl` (configuration not stated) + Cc1nc(NC(=O)N2CCCC2C(N)=O)sc1-c1ccnc(C(C)(C)C(F)(F)F)c1, for which the viability, T/C was 86.6%.

For `Cn1nccc1Nc1nccc(-c2ccn(C(CO)c3ccc(Cl)c(F)c3)c(=O)c2)n1` (configuration not stated) + Cc1nc(NC(=O)N2CCCC2C(N)=O)sc1-c1ccnc(C(C)(C)C(F)(F)F)c1, the viability, T/C is 100%.

Still in this experiment, the particulars now being: second compound 0.1 µM; first compound 0.316 µM; active compounds read low.
As to `C=CC(=O)N1CCN(c2nc(=O)n(-c3c(C)ccnc3C(C)C)c3nc(-c4c(O)cccc4F)c(F)cc23)C(C)C1` (configuration not stated) + Cc1nc(NC(=O)N2CCCC2C(N)=O)sc1-c1ccnc(C(C)(C)C(F)(F)F)c1, the viability, T/C was 93%.

As for `CC(Cn1ccc(-c2ccc(C#N)c(Cl)c2)n1)NC(=O)c1cc(C(C)O)[nH]n1` (configuration not stated) + Cc1nc(NC(=O)N2CCCC2C(N)=O)sc1-c1ccnc(C(C)(C)C(F)(F)F)c1, the viability, T/C is 98.7%.

Turning to `Cn1ncc(Cl)c1-c1cc(C(=O)NC(CN)Cc2cccc(F)c2)sc1Cl` (configuration not stated) + Cc1nc(NC(=O)N2CCCC2C(N)=O)sc1-c1ccnc(C(C)(C)C(F)(F)F)c1, the viability, T/C is 82.8%.

Turning to `Cn1nccc1Nc1nccc(-c2ccn(C(CO)c3ccc(Cl)c(F)c3)c(=O)c2)n1` (configuration not stated) + Cc1nc(NC(=O)N2CCCC2C(N)=O)sc1-c1ccnc(C(C)(C)C(F)(F)F)c1, the viability, T/C was 68.7%.

The same experiment, now with this note: second compound 0.1 µM; first compound 1 µM; active compounds read low.
As to `C=CC(=O)N1CCN(c2nc(=O)n(-c3c(C)ccnc3C(C)C)c3nc(-c4c(O)cccc4F)c(F)cc23)C(C)C1` (configuration not stated) + Cc1nc(NC(=O)N2CCCC2C(N)=O)sc1-c1ccnc(C(C)(C)C(F)(F)F)c1, the viability, T/C was 81.4%.

As to `CC(Cn1ccc(-c2ccc(C#N)c(Cl)c2)n1)NC(=O)c1cc(C(C)O)[nH]n1` (configuration not stated) + Cc1nc(NC(=O)N2CCCC2C(N)=O)sc1-c1ccnc(C(C)(C)C(F)(F)F)c1, the viability, T/C is 108%.

Take `Cn1ncc(Cl)c1-c1cc(C(=O)NC(CN)Cc2cccc(F)c2)sc1Cl` (configuration not stated) + Cc1nc(NC(=O)N2CCCC2C(N)=O)sc1-c1ccnc(C(C)(C)C(F)(F)F)c1: the viability, T/C was 57.2%.

Consider `Cn1nccc1Nc1nccc(-c2ccn(C(CO)c3ccc(Cl)c(F)c3)c(=O)c2)n1` (configuration not stated) + Cc1nc(NC(=O)N2CCCC2C(N)=O)sc1-c1ccnc(C(C)(C)C(F)(F)F)c1, for which the viability, T/C was 83.3%.

The experiment is the same for the next values; noted with them: second compound 0.1 µM; first compound 3.16 µM; active compounds read low.
Regarding `C=CC(=O)N1CCN(c2nc(=O)n(-c3c(C)ccnc3C(C)C)c3nc(-c4c(O)cccc4F)c(F)cc23)C(C)C1` (configuration not stated) + Cc1nc(NC(=O)N2CCCC2C(N)=O)sc1-c1ccnc(C(C)(C)C(F)(F)F)c1, the viability, T/C was 79.5%.

Regarding `CC(Cn1ccc(-c2ccc(C#N)c(Cl)c2)n1)NC(=O)c1cc(C(C)O)[nH]n1` (configuration not stated) + Cc1nc(NC(=O)N2CCCC2C(N)=O)sc1-c1ccnc(C(C)(C)C(F)(F)F)c1, the viability, T/C is 72.6%.

Regarding `Cn1ncc(Cl)c1-c1cc(C(=O)NC(CN)Cc2cccc(F)c2)sc1Cl` (configuration not stated) + Cc1nc(NC(=O)N2CCCC2C(N)=O)sc1-c1ccnc(C(C)(C)C(F)(F)F)c1, the viability, T/C was 53.5%.

For the compound `Cn1nccc1Nc1nccc(-c2ccn(C(CO)c3ccc(Cl)c(F)c3)c(=O)c2)n1` (configuration not stated) + Cc1nc(NC(=O)N2CCCC2C(N)=O)sc1-c1ccnc(C(C)(C)C(F)(F)F)c1, the viability, T/C is 82.7%.

The same experiment, now with this note: second compound 0.1 µM; first compound 10 µM; active compounds read low.
Consider `C=CC(=O)N1CCN(c2nc(=O)n(-c3c(C)ccnc3C(C)C)c3nc(-c4c(O)cccc4F)c(F)cc23)C(C)C1` (configuration not stated) + Cc1nc(NC(=O)N2CCCC2C(N)=O)sc1-c1ccnc(C(C)(C)C(F)(F)F)c1, for which the viability, T/C was 80.2%.

For the compound `CC(Cn1ccc(-c2ccc(C#N)c(Cl)c2)n1)NC(=O)c1cc(C(C)O)[nH]n1` (configuration not stated) + Cc1nc(NC(=O)N2CCCC2C(N)=O)sc1-c1ccnc(C(C)(C)C(F)(F)F)c1, the viability, T/C is 92.5%.

Take `Cn1ncc(Cl)c1-c1cc(C(=O)NC(CN)Cc2cccc(F)c2)sc1Cl` (configuration not stated) + Cc1nc(NC(=O)N2CCCC2C(N)=O)sc1-c1ccnc(C(C)(C)C(F)(F)F)c1: the viability, T/C is 39.3%.

`Cn1nccc1Nc1nccc(-c2ccn(C(CO)c3ccc(Cl)c(F)c3)c(=O)c2)n1` (configuration not stated) + Cc1nc(NC(=O)N2CCCC2C(N)=O)sc1-c1ccnc(C(C)(C)C(F)(F)F)c1: the viability, T/C is 45.2%.

The same experiment, now with this note: second compound 0.316 µM; first compound 0.0316 µM; active compounds read low.
`C=CC(=O)N1CCN(c2nc(=O)n(-c3c(C)ccnc3C(C)C)c3nc(-c4c(O)cccc4F)c(F)cc23)C(C)C1` (configuration not stated) + Cc1nc(NC(=O)N2CCCC2C(N)=O)sc1-c1ccnc(C(C)(C)C(F)(F)F)c1: the viability, T/C is 95.2%.

Regarding `CC(Cn1ccc(-c2ccc(C#N)c(Cl)c2)n1)NC(=O)c1cc(C(C)O)[nH]n1` (configuration not stated) + Cc1nc(NC(=O)N2CCCC2C(N)=O)sc1-c1ccnc(C(C)(C)C(F)(F)F)c1, the viability, T/C was 55.1%.

Consider `Cn1ncc(Cl)c1-c1cc(C(=O)NC(CN)Cc2cccc(F)c2)sc1Cl` (configuration not stated) + Cc1nc(NC(=O)N2CCCC2C(N)=O)sc1-c1ccnc(C(C)(C)C(F)(F)F)c1, for which the viability, T/C is 85.3%.

Take `Cn1nccc1Nc1nccc(-c2ccn(C(CO)c3ccc(Cl)c(F)c3)c(=O)c2)n1` (configuration not stated) + Cc1nc(NC(=O)N2CCCC2C(N)=O)sc1-c1ccnc(C(C)(C)C(F)(F)F)c1: the viability, T/C is 94.6%.

The same experiment, now with this note: second compound 0.316 µM; first compound 0.1 µM; active compounds read low.
As for `C=CC(=O)N1CCN(c2nc(=O)n(-c3c(C)ccnc3C(C)C)c3nc(-c4c(O)cccc4F)c(F)cc23)C(C)C1` (configuration not stated) + Cc1nc(NC(=O)N2CCCC2C(N)=O)sc1-c1ccnc(C(C)(C)C(F)(F)F)c1, the viability, T/C was 96.7%.

As for `CC(Cn1ccc(-c2ccc(C#N)c(Cl)c2)n1)NC(=O)c1cc(C(C)O)[nH]n1` (configuration not stated) + Cc1nc(NC(=O)N2CCCC2C(N)=O)sc1-c1ccnc(C(C)(C)C(F)(F)F)c1, the viability, T/C was 74.3%.

In the case of `Cn1ncc(Cl)c1-c1cc(C(=O)NC(CN)Cc2cccc(F)c2)sc1Cl` (configuration not stated) + Cc1nc(NC(=O)N2CCCC2C(N)=O)sc1-c1ccnc(C(C)(C)C(F)(F)F)c1, the viability, T/C is 94%.

As to `Cn1nccc1Nc1nccc(-c2ccn(C(CO)c3ccc(Cl)c(F)c3)c(=O)c2)n1` (configuration not stated) + Cc1nc(NC(=O)N2CCCC2C(N)=O)sc1-c1ccnc(C(C)(C)C(F)(F)F)c1, the viability, T/C is 63.8%.

Still in this experiment, the particulars now being: second compound 0.316 µM; first compound 0.316 µM; active compounds read low.
As to `C=CC(=O)N1CCN(c2nc(=O)n(-c3c(C)ccnc3C(C)C)c3nc(-c4c(O)cccc4F)c(F)cc23)C(C)C1` (configuration not stated) + Cc1nc(NC(=O)N2CCCC2C(N)=O)sc1-c1ccnc(C(C)(C)C(F)(F)F)c1, the viability, T/C was 70.1%.

On to `CC(Cn1ccc(-c2ccc(C#N)c(Cl)c2)n1)NC(=O)c1cc(C(C)O)[nH]n1` (configuration not stated) + Cc1nc(NC(=O)N2CCCC2C(N)=O)sc1-c1ccnc(C(C)(C)C(F)(F)F)c1, for which the viability, T/C is 105%.

`Cn1ncc(Cl)c1-c1cc(C(=O)NC(CN)Cc2cccc(F)c2)sc1Cl` (configuration not stated) + Cc1nc(NC(=O)N2CCCC2C(N)=O)sc1-c1ccnc(C(C)(C)C(F)(F)F)c1: the viability, T/C was 76.2%.

For `Cn1nccc1Nc1nccc(-c2ccn(C(CO)c3ccc(Cl)c(F)c3)c(=O)c2)n1` (configuration not stated) + Cc1nc(NC(=O)N2CCCC2C(N)=O)sc1-c1ccnc(C(C)(C)C(F)(F)F)c1, the viability, T/C is 67.9%.
